Laboratory results taken from article PMC5218480 (PLoS ONE, 2017).

Tested on: MV-4-11 cells
Test: Gene expression microarray analysis (Affymetrix PrimeView) and GSEA
Format: cell-based, human
Design: RFU PODN (11730768_x_at) / Fold change /veh PODN (11730768_x_at) / RFU LINC00158 (11744669_a_at) / Fold change /veh LINC00158 (11744669_a_at) / RFU DUSP10 (11751237_a_at) / Fold change /veh DUSP10 (11751237_a_at) / RFU ID3 (11757404_x_at) / Fold change /veh ID3 (11757404_x_at) / RFU PLEKHG5 (11737974_s_at) / Fold change /veh PLEKHG5 (11737974_s_at) / RFU LRRC4B (11730491_at) / Fold change /veh LRRC4B (11730491_at) / RFU GIMAP4 (11747438_a_at) / Fold change /veh GIMAP4 (11747438_a_at) / RFU KRT8 (11758183_x_at) / Fold change /veh KRT8 (11758183_x_at) / RFU CNN1 (11734310_a_at) / Fold change /veh CNN1 (11734310_a_at) / RFU VPS37D (11726825_at) / Fold change /veh VPS37D (11726825_at) / RFU C10orf10 (11716522_x_at) / Fold change /veh C10orf10 (11716522_x_at) / RFU KIR2DL2 /// KIR2DL4 /// KIR2DL5A /// KIR2DL5B /// KIR2DS1 /// KIR2DS2 /// KIR2DS3 /// KIR2DS4 /// KIR3DL3 /// KIR3DL3 /// KIR3DS1 (11738374_at) / Fold change /veh KIR2DL2 /// KIR2DL4 /// KIR2DL5A /// KIR2DL5B /// KIR2DS1 /// KIR2DS2 /// KIR2DS3 /// KIR2DS4 /// KIR3DL3 /// KIR3DL3 /// KIR3DS1 (11738374_at) / RFU C1QL1 (11718748_at) / Fold change /veh C1QL1 (11718748_at) / RFU TMPRSS4 (11747572_a_at) / Fold change /veh TMPRSS4 (11747572_a_at) / RFU HAMP (11756126_x_at) / Fold change /veh HAMP (11756126_x_at) / RFU RNFT2 (11725882_a_at) / Fold change /veh RNFT2 (11725882_a_at) / RFU NR4A2 (11747474_a_at) / Fold change /veh NR4A2 (11747474_a_at) / RFU ABCC12 (11746883_a_at) / Fold change /veh ABCC12 (11746883_a_at) / RFU TMEM136 (11760407_x_at) / Fold change /veh TMEM136 (11760407_x_at) / RFU CLDN22 /// WWC2 (11732394_at) / Fold change /veh CLDN22 /// WWC2 (11732394_at) / RFU HLA-DPB1 (11760878_x_at) / Fold change /veh HLA-DPB1 (11760878_x_at) / RFU SPINT1 (11716480_a_at) / Fold change /veh SPINT1 (11716480_a_at) / RFU GAP43 (11754022_s_at) / Fold change /veh GAP43 (11754022_s_at) / RFU A4GNT (11735810_at) / Fold change /veh A4GNT (11735810_at) / RFU PRB3 (11715151_x_at) / Fold change /veh PRB3 (11715151_x_at) / RFU TUBB4B (11761932_at) / Fold change /veh TUBB4B (11761932_at) / RFU CAPN14 (11732068_a_at) / Fold change /veh CAPN14 (11732068_a_at) / RFU TMCC2 (11721928_a_at) / Fold change /veh TMCC2 (11721928_a_at) / RFU IRGQ (11745062_a_at) / Fold change /veh IRGQ (11745062_a_at) / RFU FAM174B (11720279_a_at) / Fold change /veh FAM174B (11720279_a_at) / RFU TMPRSS4 (11748680_a_at) / Fold change /veh TMPRSS4 (11748680_a_at) / RFU FAM212B (11763350_a_at) / Fold change /veh FAM212B (11763350_a_at) / RFU PLEKHG5 (11743358_a_at) / Fold change /veh PLEKHG5 (11743358_a_at) / RFU ZSCAN30 (11745921_a_at) / Fold change /veh ZSCAN30 (11745921_a_at) / RFU CMKLR1 (11741424_a_at) / Fold change /veh CMKLR1 (11741424_a_at) / RFU LOC101060620 /// MAPK8IP1 (11723275_at) / Fold change /veh LOC101060620 /// MAPK8IP1 (11723275_at) / RFU SPTSSB (11747773_x_at) / Fold change /veh SPTSSB (11747773_x_at) / RFU PRSS12 (11739890_at) / Fold change /veh PRSS12 (11739890_at) / RFU BIN1 (11741810_x_at) / Fold change /veh BIN1 (11741810_x_at) / RFU WNT11 (11732464_a_at) / Fold change /veh WNT11 (11732464_a_at) / RFU C10orf10 (11716521_a_at) / Fold change /veh C10orf10 (11716521_a_at) / RFU C5orf56 (11738089_at) / Fold change /veh C5orf56 (11738089_at) / RFU CYB561 (11721691_x_at) / Fold change /veh CYB561 (11721691_x_at) / RFU ANKRD19P (11752326_a_at) / Fold change /veh ANKRD19P (11752326_a_at) / RFU OR2T12 /// OR2T33 /// OR2T8 (11738714_s_at) / Fold change /veh OR2T12 /// OR2T33 /// OR2T8 (11738714_s_at) / RFU VCAN (11748164_a_at) / Fold change /veh VCAN (11748164_a_at) / RFU JSRP1 (11732532_at) / Fold change /veh JSRP1 (11732532_at) / RFU KRTAP10-11 (11738290_x_at) / Fold change /veh KRTAP10-11 (11738290_x_at) / RFU MYO3A (11730013_a_at) / Fold change /veh MYO3A (11730013_a_at) / RFU EBF3 (11725865_a_at) / Fold change /veh EBF3 (11725865_a_at) / RFU CAMK2N1 (11719241_x_at) / Fold change /veh CAMK2N1 (11719241_x_at) / RFU C5orf56 (11738088_a_at) / Fold change /veh C5orf56 (11738088_a_at) / RFU OLFML3 (11715873_a_at) / Fold change /veh OLFML3 (11715873_a_at) / RFU LOC100653217 /// NTM (11731650_a_at) / Fold change /veh LOC100653217 /// NTM (11731650_a_at) / RFU MAPK11 (11762145_a_at) / Fold change /veh MAPK11 (11762145_a_at) / RFU FIZ1 (11724087_x_at) / Fold change /veh FIZ1 (11724087_x_at) / RFU OASL (11726364_x_at) / Fold change /veh OASL (11726364_x_at) / RFU SOX15 (11748057_x_at) / Fold change /veh SOX15 (11748057_x_at) / RFU CD79A (11719716_a_at) / Fold change /veh CD79A (11719716_a_at) / RFU HIST1H1D (11736915_at) / Fold change /veh HIST1H1D (11736915_at) / RFU CASKIN2 (11723855_a_at) / Fold change /veh CASKIN2 (11723855_a_at) / RFU LOC730098 (11760151_x_at) / Fold change /veh LOC730098 (11760151_x_at) / RFU OR4N2 (11742367_at) / Fold change /veh OR4N2 (11742367_at) / RFU PRRT2 (11749266_a_at) / Fold change /veh PRRT2 (11749266_a_at) / RFU SNX32 (11753110_a_at) / Fold change /veh SNX32 (11753110_a_at) / RFU CDHR5 (11726645_a_at) / Fold change /veh CDHR5 (11726645_a_at) / RFU RCAN1 (11760418_a_at) / Fold change /veh RCAN1 (11760418_a_at) / RFU FAM167A (11723789_a_at) / Fold change /veh FAM167A (11723789_a_at) / RFU FAM26E (11764081_at) / Fold change /veh FAM26E (11764081_at) / RFU ISYNA1 (11749810_s_at) / Fold change /veh ISYNA1 (11749810_s_at) / RFU ACY1 (11761880_at) / Fold change /veh ACY1 (11761880_at) / RFU 11764098_at / Fold change /veh 11764098_at / RFU SAMD14 (11745864_x_at) / Fold change /veh SAMD14 (11745864_x_at) / RFU NPB (11741838_a_at) / Fold change /veh NPB (11741838_a_at) / RFU TMPRSS6 (11731388_a_at) / Fold change /veh TMPRSS6 (11731388_a_at) / RFU KRTAP10-2 (11738614_at) / Fold change /veh KRTAP10-2 (11738614_at) / RFU ARHGAP8 /// PRR5-ARHGAP8 (11727945_x_at) / Fold change /veh ARHGAP8 /// PRR5-ARHGAP8 (11727945_x_at) / RFU KRTAP5-7 /// NADSYN1 (11734609_at) / Fold change /veh KRTAP5-7 /// NADSYN1 (11734609_at) / RFU RASL12 (11751679_a_at) / Fold change /veh RASL12 (11751679_a_at) / RFU CDKN2B (11736163_a_at) / Fold change /veh CDKN2B (11736163_a_at) / RFU PRF1 (11729649_at) / Fold change /veh PRF1 (11729649_at) / RFU, ZNF638 /// ZNF638-IT1 / Fold change vs veh, ZNF638 /// ZNF638-IT1 / RFU, PANK3 / Fold change vs veh, PANK3 / RFU, SH3YL1 / Fold change vs veh, SH3YL1 / RFU, ZEB2 / Fold change vs veh, ZEB2 / RFU, NRIP1 / Fold change vs veh, NRIP1 / RFU, PTTG1IP / Fold change vs veh, PTTG1IP / RFU, CAPN2 / Fold change vs veh, CAPN2 / RFU, MED14 / Fold change vs veh, MED14 / RFU, SNORA58 / Fold change vs veh, SNORA58 / RFU, C1orf63 / Fold change vs veh, C1orf63 / RFU, LRRFIP1 / Fold change vs veh, LRRFIP1 / RFU, NDUFAF7 / Fold change vs veh, NDUFAF7 / RFU, SLC12A2 / Fold change vs veh, SLC12A2 / RFU, IBTK / Fold change vs veh, IBTK / RFU, ESF1 / Fold change vs veh, ESF1 / Fold change vs veh, TMEM50B / RFU, TAOK1 / Fold change vs veh, TAOK1 / RFU, ACBD3 / Fold change vs veh, ACBD3 / RFU, TMA16 / Fold change vs veh, TMA16 / RFU, RWDD3 / Fold change vs veh, RWDD3 / RFU, BCAT1 / Fold change vs veh, BCAT1 / RFU, EDEM3 / Fold change vs veh, EDEM3 / RFU, TMEM33 / Fold change vs veh, TMEM33 / RFU, WDR75 / Fold change vs veh, WDR75 / RFU, AHCTF1 / Fold change vs veh, AHCTF1 / RFU, TFRC / Fold change vs veh, TFRC / RFU, ZDHHC17 / Fold change vs veh, ZDHHC17 / RFU, NOM1 / Fold change vs veh, NOM1 / RFU, ARL8B / Fold change vs veh, ARL8B / RFU, ZBTB11 / Fold change vs veh, ZBTB11 / RFU, TAMM41 / Fold change vs veh, TAMM41 / RFU, KIAA1704 /// LOC100996395 / Fold change vs veh, KIAA1704 /// LOC100996395 / RFU, ING1 / Fold change vs veh, ING1 / RFU, TRMT61B / Fold change vs veh, TRMT61B / RFU, FUBP3 / Fold change vs veh, FUBP3 / RFU, TP53 / Fold change vs veh, TP53 / RFU, TNKS2 / Fold change vs veh, TNKS2 / RFU, ZFP14 / Fold change vs veh, ZFP14 / RFU, ACTR2 / Fold change vs veh, ACTR2 / RFU, PPP3R1 / Fold change vs veh, PPP3R1 / RFU, PIK3R1 / Fold change vs veh, PIK3R1 / RFU, HNRNPA1 / Fold change vs veh, HNRNPA1 / RFU, RNF170 / Fold change vs veh, RNF170 / RFU, ZNF28 / Fold change vs veh, ZNF28 / RFU, RNGTT / Fold change vs veh, RNGTT / RFU, OGT / Fold change vs veh, OGT / RFU, BRD1 / Fold change vs veh, BRD1 / RFU, MARS / Fold change vs veh, MARS / RFU, ZNF655 / Fold change vs veh, ZNF655 / RFU, FAHD1 / Fold change vs veh, FAHD1 / RFU, BDP1 / Fold change vs veh, BDP1 / RFU, LRRCC1 / Fold change vs veh, LRRCC1 / RFU, ARID1A / Fold change vs veh, ARID1A / RFU, ZNF146 / Fold change vs veh, ZNF146 / RFU, ZNF330 / Fold change vs veh, ZNF330 / RFU, GPN3 / Fold change vs veh, GPN3 / RFU, C9orf123 / Fold change vs veh, C9orf123 / RFU, N4BP2L2 / Fold change vs veh, N4BP2L2 / RFU, ARFIP1 / Fold change vs veh, ARFIP1 / RFU, FAM179B / Fold change vs veh, FAM179B / RFU, BCL10 / Fold change vs veh, BCL10 / RFU, UHRF1BP1L / Fold change vs veh, UHRF1BP1L / RFU, BET1 / Fold change vs veh, BET1 / RFU, CNOT2 / Fold change vs veh, CNOT2 / RFU, ZNF268 / Fold change vs veh, ZNF268 / Fold change vs veh, ZNF507 / RFU, DGCR2 / Fold change vs veh, DGCR2 / RFU, WDSUB1 / Fold change vs veh, WDSUB1 / Fold change vs veh, HSP90B1 /// MIR3652 / RFU, ADSS / Fold change vs veh, ADSS / RFU, GK / Fold change vs veh, GK / RFU, ZNF148 / Fold change vs veh, ZNF148 / RFU, TAF9 / Fold change vs veh, TAF9 / RFU, SLC1A5 / Fold change vs veh, SLC1A5 / RFU, SLMO2 / Fold change vs veh, SLMO2 / RFU, ABCC4 / Fold change vs veh, ABCC4 / RFU, LOC101060439 /// RAP1B / Fold change vs veh, LOC101060439 /// RAP1B / RFU, RFX7 / Fold change vs veh, RFX7 / RFU, GTPBP10 / Fold change vs veh, GTPBP10 / RFU, CNEP1R1 / Fold change vs veh, CNEP1R1 / RFU, BIVM-ERCC5 /// ERCC5 / Fold change vs veh, BIVM-ERCC5 /// ERCC5 / RFU, ILF3 / Fold change vs veh, ILF3 / RFU 11762660_at / Fold change /veh 11762660_at / RFU VCAN (11757783_s_at) / Fold change /veh VCAN (11757783_s_at) / RFU DDX43 (11728927_at) / Fold change /veh DDX43 (11728927_at) / RFU KRT8 (11758188_x_at) / Fold change /veh KRT8 (11758188_x_at) / RFU NKD1 (11759106_at) / Fold change /veh NKD1 (11759106_at) / RFU SRD5A1 (11742802_a_at) / Fold change /veh SRD5A1 (11742802_a_at) / RFU TPSAB1 /// TPSB2 (11721975_s_at) / Fold change /veh TPSAB1 /// TPSB2 (11721975_s_at) / RFU GSTM3 (11746129_a_at) / Fold change /veh GSTM3 (11746129_a_at) / RFU IL23R (11737362_x_at) / Fold change /veh IL23R (11737362_x_at) / RFU TMEM51 (11727254_a_at) / Fold change /veh TMEM51 (11727254_a_at) / RFU PIWIL2 (11732686_x_at) / Fold change /veh PIWIL2 (11732686_x_at) / RFU ORM1 (11744905_x_at) / Fold change /veh ORM1 (11744905_x_at) / RFU CCDC152 (11743942_at) / Fold change /veh CCDC152 (11743942_at) / RFU ECM1 (11717891_a_at) / Fold change /veh ECM1 (11717891_a_at) / RFU IL23R (11748794_a_at) / Fold change /veh IL23R (11748794_a_at) / RFU TNFAIP8L3 (11732012_x_at) / Fold change /veh TNFAIP8L3 (11732012_x_at) / RFU MBOAT4 (11741988_at) / Fold change /veh MBOAT4 (11741988_at) / RFU 11764193_at / Fold change /veh 11764193_at / RFU TMEM53 (11763286_at) / Fold change /veh TMEM53 (11763286_at) / RFU MAGEB2 (11727129_at) / Fold change /veh MAGEB2 (11727129_at) / RFU TMEM200A (11744735_a_at) / Fold change /veh TMEM200A (11744735_a_at) / RFU CCDC152 (11751479_a_at) / Fold change /veh CCDC152 (11751479_a_at) / RFU FAM211A (11726209_a_at) / Fold change /veh FAM211A (11726209_a_at) / RFU RGS16 (11746705_a_at) / Fold change /veh RGS16 (11746705_a_at) / RFU VCAN (11755009_s_at) / Fold change /veh VCAN (11755009_s_at) / RFU RHOB (11743442_s_at) / Fold change /veh RHOB (11743442_s_at) / RFU RGS16 (11720943_a_at) / Fold change /veh RGS16 (11720943_a_at) / RFU RGS16 (11720944_at) / Fold change /veh RGS16 (11720944_at) / RFU, VPS4B / Fold change vs veh, VPS4B / RFU, CREB1 / Fold change vs veh, CREB1 / RFU, DNAJC13 / Fold change vs veh, DNAJC13 / RFU, GNAQ / Fold change vs veh, GNAQ / RFU, CDK5R1 / Fold change vs veh, CDK5R1 / RFU, ZRANB3 / Fold change vs veh, ZRANB3 / RFU, CUL4A / Fold change vs veh, CUL4A / RFU, CCNY / Fold change vs veh, CCNY / RFU, UFL1 / Fold change vs veh, UFL1 / RFU, COG3 / Fold change vs veh, COG3 / RFU, DIAPH2 / Fold change vs veh, DIAPH2 / RFU, SKA2 / Fold change vs veh, SKA2 / RFU, AFF3 / Fold change vs veh, AFF3 / RFU, LMF1 / Fold change vs veh, LMF1 / RFU, IPO11 / Fold change vs veh, IPO11 / RFU, DFFB / Fold change vs veh, DFFB / RFU, FOXP1 / Fold change vs veh, FOXP1 / RFU, CARD8 / Fold change vs veh, CARD8 / RFU, STRN3 / Fold change vs veh, STRN3 / RFU, ADK / Fold change vs veh, ADK / RFU, RASSF2 / Fold change vs veh, RASSF2 / RFU, WIPF1 / Fold change vs veh, WIPF1 / RFU, LARP1B / Fold change vs veh, LARP1B / RFU, RASA1 / Fold change vs veh, RASA1 / RFU, RB1 / Fold change vs veh, RB1 / RFU, PPFIA1 / Fold change vs veh, PPFIA1 / RFU, MAT2A / Fold change vs veh, MAT2A / RFU, CCT5 / Fold change vs veh, CCT5 / RFU, WDR92 / Fold change vs veh, WDR92 / RFU, CUX1 / Fold change vs veh, CUX1 / RFU, TTC7A / Fold change vs veh, TTC7A / RFU, TMEM135 / Fold change vs veh, TMEM135 / RFU, DEPTOR / Fold change vs veh, DEPTOR / RFU, CPM / Fold change vs veh, CPM / RFU, DNAJB6 / Fold change vs veh, DNAJB6 / RFU, CACNA2D3 / Fold change vs veh, CACNA2D3 / RFU, DTX4 / Fold change vs veh, DTX4 / RFU, TFCP2 / Fold change vs veh, TFCP2 / RFU, GMCL1 /// GMCL1P1 / Fold change vs veh, GMCL1 /// GMCL1P1 / RFU, AEBP2 / Fold change vs veh, AEBP2 / RFU, SNHG1 /// SNORD22 /// SNORD25 /// SNORD26 /// SNORD27 /// SNORD28 /// SNORD29 /// SNORD31 / Fold change vs veh, SNHG1 /// SNORD22 /// SNORD25 /// SNORD26 /// SNORD27 /// SNORD28 /// SNORD29 /// SNORD31 / Fold change (Aza/veh), C12orf56 (ProbeSet 11735607_a_at) / Fold change (ACY-1035/veh), C12orf56 (ProbeSet 11735607_a_at) / Fold change (Aza/veh), FGFR1OP (ProbeSet 11751329_s_at) / Fold change (ACY-1035/veh), FGFR1OP (ProbeSet 11751329_s_at) / Fold change (Aza/veh), VPS36 (ProbeSet 11739960_a_at) / Fold change (ACY-1035/veh), VPS36 (ProbeSet 11739960_a_at) / RFU SYPL1 (11715823_x_at) / Fold change /veh SYPL1 (11715823_x_at) / RFU IGFBP7 (11715501_s_at) / Fold change /veh IGFBP7 (11715501_s_at) / RFU REEP3 (11722064_at) / Fold change /veh REEP3 (11722064_at) / RFU IGLL1 (11728026_x_at) / Fold change /veh IGLL1 (11728026_x_at): dose or concentration left out as unconfirmed
Details: MV-4-11 cells, 48 hours

Compound: Nc1ccc(-c2cccs2)cc1NC(=O)c1ccc2c(c1)cc(C1CC1)n2CCN1CCOCC1 [ACY-1035]
- Fold change /veh OR4N2 (11742367_at): 1.06
